Assay results: ChEMBL document CHEMBL3232729, “Marsupellins A-F, ent-longipinane-type sesquiterpenoids from the Chinese liverwort Marsupella alpine with acetylcholinesterase inhibitory activity” (J Nat Prod, 2014)

Target: Acetylcholinesterase (Homo sapiens) (UniProt P22303)
Sequence (P22303 whole entry): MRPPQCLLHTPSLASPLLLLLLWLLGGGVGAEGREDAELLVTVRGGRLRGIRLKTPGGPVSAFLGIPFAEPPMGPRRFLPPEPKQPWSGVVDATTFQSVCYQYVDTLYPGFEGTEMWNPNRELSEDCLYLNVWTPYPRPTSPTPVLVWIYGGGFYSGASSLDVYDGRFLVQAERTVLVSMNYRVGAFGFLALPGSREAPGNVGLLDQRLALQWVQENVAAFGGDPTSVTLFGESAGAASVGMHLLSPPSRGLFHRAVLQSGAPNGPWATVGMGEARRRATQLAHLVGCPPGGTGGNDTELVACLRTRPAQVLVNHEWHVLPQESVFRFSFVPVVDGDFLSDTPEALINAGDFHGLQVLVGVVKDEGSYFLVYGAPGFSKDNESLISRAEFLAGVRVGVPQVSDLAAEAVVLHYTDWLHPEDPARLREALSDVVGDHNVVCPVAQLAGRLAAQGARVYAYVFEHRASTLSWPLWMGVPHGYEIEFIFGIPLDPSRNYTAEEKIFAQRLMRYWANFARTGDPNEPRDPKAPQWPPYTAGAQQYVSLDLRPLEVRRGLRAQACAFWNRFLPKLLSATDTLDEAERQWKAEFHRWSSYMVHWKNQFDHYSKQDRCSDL
Description: Inhibition of AChE (unknown origin) assessed as minimum inhibitory concentration by bioautographic TLC assay

SMILES	MIC [µg]
C[C@@H]1C(=O)C[C@H]2[C@H]3[C@@H]1C2(C)CCCC3(C)C	4
C=C1C(=O)C[C@H]2[C@H]3[C@@H]1C2(COC(C)=O)CCCC3(C)C	4
C=C1[C@@H](O)[C@H](O)[C@H]2[C@H]3[C@@H]1C2(C)CCCC3(C)C	4
C=C1OC(=O)C[C@H]2[C@H]3[C@@H]1[C@]2(COC(C)=O)CCCC3(C)C	4
C[C@H]1[C@@H]2[C@@H]3[C@@H]4C[C@@]1(O)OC[C@@]24CCCC3(C)C	0.8
CC(=O)OC[C@]12CCCC(C)(C)[C@@H]3[C@H]1[C@@]1(CO1)C(=O)C[C@@H]32	4
C=C1[C@H](O)C[C@H]2[C@H]3[C@@H]1C2(COC(C)=O)CCCC3(C)C	4
CC(=O)OC[C@]12CCCC(C)(C)[C@@H]3[C@H]1[C@]1(CO1)C(=O)C[C@@H]32	4
C[C@H]1[C@@H]2[C@@H]3[C@@H]4C[C@@]1(O)OC(=O)[C@@]24CCCC3(C)C	0.6
